The source made the active and inactive calls. The calls are words filed in the database; no cut-off is given here.
Columns and labels:
MDA-MB-231 [1] = assay: Downregulation of ND1 gene expression in human MDA-MB-231 cells at 1 uM measured after 48 hrs by RNA-seq analysis; format: functional, cell-based
MDA-MB-231 [2] = assay: Antitumor activity against human MDA-MB-231 cells xenografted in female Balb/c mouse assessed as reduction in tumor volume at 5 mg/kg, iv administered via tail vein every 2 days for 16 days relative to control; format: functional; set-up: scale not given: the % may be the effect or the level left; details: time 16 day
MDA-MB-231 [3] = assay: Induction of cell cycle arrest in human MDA-MB-231 cells assessed as accumulation of cells at G2/M phase at 0.5 to 1.5 uM measured after 48 hrs by 7-aminoactinomycin D/RNase staining based flow cytometry analysis (reference value: 14.3%); format: functional; details: dose 0.5-1.5 µM
MDA-MB-231 [4] = assay: Inhibition of hTERT protein expression in human MDA-MB-231 cells measured after 48 hrs by Western blot analysis; format: functional, cell-based; details: dose 0-1.5 µM
Homo sapiens [5] = organism: Homo sapiens; assay: Binding affinity to antisense i-hTERT DNA assessed as change in enthalpy at 400 uM by ITC analysis
MDA-MB-231 [6] = assay: Induction of cell cycle arrest in human MDA-MB-231 cells assessed as accumulation of cells at S phase at 0.5 to 1.5 uM measured after 48 hrs by 7-aminoactinomycin D/RNase staining based flow cytometry analysis (reference value: 23.4%); format: functional; details: dose 0.5-1.5 µM
MDA-MB-231 [7] = assay: Antitumor activity against human MDA-MB-231 cells xenografted in female Balb/c mouse assessed as inhibition of tumor cell proliferation at 5 mg/kg, iv administered via tail vein every 2 days for 16 days by Ki67 staining based assay; format: functional, organism-based; details: time 16.0 day
A549 = assay: Cytotoxicity against telomerase-positive human A549 cells assessed as inhibition of cell growth incubated for 48 hrs by MTT assay; format: functional, cell-based; details: A549, 48 h
DNA = assay: Binding affinity to DNA in telomerase-positive live human MDA-MB-231 cells assessed as reduction in fluorescence at 5 uM preincubated for 10 mins followed by washout and DNase I addition measured after 2 hrs by Hoechst 33342 staining based confocal microscopic analysis; format: cell-based
MDA-MB-231 [8] = assay: Induction of DNA damage in human MDA-MB-231 cells assessed as upregulation of 53BP1 protein expression measured after 48 hrs by Western blot analysis; format: functional, cell-based; details: dose 0-1.5 µM
Quadruplex DNA [9] = assay: Binding affinity to Bcl-2 G4 DNA (unknown origin) assessed as change in enthalpy at 400 uM by ITC analysis; format: nucleic-acid assay
MDA-MB-231 [10] = assay: Induction of mitochondrial dysfunction in human MDA-MB-231 cells assessed as downregulation of mitochondrial respiratory complex III-UQCRC2 expression incubated for 48 hrs by Western blot analysis; format: functional, cell-based; details: dose 0-1.5 µM
MDA-MB-231 [11] = assay: Induction of mitochondrial dysfunction in human MDA-MB-231 cells assessed as increase in mitochondrial ROS production at 0 to 1.5 uM incubated for 48 hrs by Hoechst33342 staining based microscopic analysis; format: functional, cell-based; details: dose 0-1.5 µM
MDA-MB-231 [12] = assay: Cytotoxicity against human MDA-MB-231 cells assessed as inhibition of cell growth incubated for 48 hrs in presence of TBHP by MTT assay; format: functional, cell-based; details: MDA-MB-231, 48 h
Homo sapiens [13] = organism: Homo sapiens; assay: Selectivity ratio of binding affinity to human TERT G4 DNA to binding affinity to antisense i-hTERT DNA
[14] = Drug localization in nucleus of telomerase-positive human MDA-MB-231 cells at 5 uM incubated for 10 mins by Hoechst 33342 staining based confocal microscopic analysis; format: ADME, subcellular; details: mda-mb-231, 10 min
MDA-MB-231 [15] = assay: Downregulation of Artemis transcription level in human MDA-MB-231 cells at 1 uM measured after 48 hrs by RNA-seq analysis; format: functional, cell-based
Homo sapiens [16] = organism: Homo sapiens; assay: Binding affinity to antisense i-hTERT DNA assessed as thermal stability by measuring change in melting temperature at 400 uM […]
Quadruplex DNA [17] = assay: Binding affinity to VEGF G4 DNA (unknown origin) assessed as thermal stability by measuring change in melting temperature at 400 uM […]; format: nucleic-acid assay
MDA-MB-231 [18] = assay: Induction of mitochondrial dysfunction in human MDA-MB-231 cells assessed as mitochondrial membrane potential impairment at 0 to 1.5 uM incubated for 48 hrs by Hoechst33342 staining based microscopic analysis; format: functional, cell-based; details: dose 0-1.5 µM
MDA-MB-231 [19] = assay: Antitumor activity against human MDA-MB-231 cells xenografted in female Balb/c mouse assessed as reduction in tumor weight at 2 mg/kg, iv administered via tail vein every 2 days for 16 days relative to control; format: functional; set-up: scale not given: the % may be the effect or the level left; details: time 16 day
[20] = Upregulation of S1PR1 gene expression in human MDA-MB-231 cells assessed as fold change at 1 uM measured after 48 hrs by RNA-seq analysis relative to control; format: functional
[21] = Toxicity in female Balb/c nude mouse xenografted with human MDA-MB-231 cells assessed as signs of discomfort at 2 to 5 mg/kg, iv administered via tail vein every 2 days for 16 days; format: organism-based; details: in vivo, 384 h, dose 2-5 mg/kg, time 16 day
MDA-MB-231 [22] = assay: Cytotoxicity against telomerase-positive human MDA-MB-231 cells assessed as inhibition of cell growth incubated for 48 hrs by MTT assay; format: functional, cell-based; details: MDA-MB-231, 48 h
MDA-MB-231 [23] = assay: Antitumor activity against human MDA-MB-231 cells xenografted in female Balb/c mouse assessed as reduction in tumor volume at 2 mg/kg, iv administered via tail vein every 2 days for 16 days relative to control; format: functional; set-up: scale not given: the % may be the effect or the level left; details: time 16 day
Quadruplex DNA [24] = assay: Binding affinity to Telo21 G4 DNA (unknown origin) assessed as thermal stability by measuring change in melting temperature at 400 uM […]; format: nucleic-acid assay
MDA-MB-231 [25] = assay: Activation of apoptosis in human MDA-MB-231 cells assessed as downregulation of Bcl-2 protein expression measured after 48 hrs by Western blot analysis; format: functional, cell-based; details: dose 0-1.5 µM
dsDNA = assay: Binding affinity to 4a4t duplex DNA (unknown origin) assessed as thermal stability by measuring change in melting temperature at 400 uM […]; format: nucleic-acid assay
MDA-MB-231 [26] = assay: Induction of DNA damage in human MDA-MB-231 cells assessed as upregulation of gamma-H2AX protein expression measured after 48 hrs by Western blot analysis; format: functional, cell-based; details: dose 0-1.5 µM
Quadruplex DNA [27] = assay: Binding affinity to human TERT G4 DNA in Tris-HCl buffer at pH 7.4 assessed as increase in CD signal at 5 to 100 uM by circular dichroism spectrometer; format: nucleic-acid assay; details: dose 5-100 µM
HepG2 = assay: Cytotoxicity against telomerase-positive human HepG2 cells assessed as inhibition of cell growth incubated for 48 hrs by MTT assay; format: functional, cell-based; details: HepG2, 48 h
MDA-MB-231 [28] = assay: Antitumor activity against human MDA-MB-231 cells xenografted in female Balb/c mouse assessed as reduction in tumor weight at 5 mg/kg, iv administered via tail vein every 2 days for 16 days relative to control; format: functional; set-up: scale not given: the % may be the effect or the level left; details: time 16 day
[29] = Upregulation of HLA-C gene expression in human MDA-MB-231 cells assessed as fold change at 1 uM measured after 48 hrs by RNA-seq analysis relative to control; format: functional
[30] = Upregulation of MAPK13 gene expression in human MDA-MB-231 cells assessed as fold change at 1 uM measured after 48 hrs by RNA-seq analysis relative to control; format: functional
[31] = Toxicity in female Balb/c nude mouse xenografted with human MDA-MB-231 cells assessed as change in blood urea nitrogen level at 2 to 5 mg/kg, iv administered via tail vein every 2 days for 16 days; format: organism-based; details: in vivo, 384 h, dose 2-5 mg/kg, time 16 day

deltaH (Homo sapiens [5]): -1.2 kcal/mol
deltaH (Quadruplex DNA [9]): -2.34 kcal/mol
Selectivity ratio (Homo sapiens [13]): 3
Drug uptake [14]: Active
ΔTm (Homo sapiens [16]): 8.82 °C
ΔTm (Quadruplex DNA [17]): 0.72 °C
ΔTm (Quadruplex DNA [24]): 8.85 °C
ΔTm (dsDNA): 1.65 °C
Activity (Quadruplex DNA [27]): Active
Compound: C[n+]1c(/C=C/c2c[nH]c3ccccc23)cc(/C=C2\Sc3ccccc3N2CCCN2CCC(C(F)(F)F)CC2)c2ccccc21.[I-]
Activity (MDA-MB-231 [1]): Active
Activity (MDA-MB-231 [2]): 78.5%
Activity (MDA-MB-231 [3]): 32%
inhibition (MDA-MB-231 [4]): Dose-Dependent Effect
Activity (MDA-MB-231 [6]): 4.6%
Activity (MDA-MB-231 [7]): Active
IC50 (A549): 2.1 µM
Activity (DNA): Active
Activity (MDA-MB-231 [8]): Dose-Dependent Effect
Activity (MDA-MB-231 [10]): Dose-Dependent Effect
Activity (MDA-MB-231 [11]): Active
IC50 (MDA-MB-231 [12]): 0.67 µM
Activity (MDA-MB-231 [15]): Active
Activity (MDA-MB-231 [18]): Active
Activity (MDA-MB-231 [19]): 48.7%
fold change (FC) [20]: >2
Activity [21]: Non-Toxic
IC50 (MDA-MB-231 [22]): 1 µM
Activity (MDA-MB-231 [23]): 52.6%
Activity (MDA-MB-231 [25]): Dose-Dependent Effect
Activity (MDA-MB-231 [26]): Dose-Dependent Effect
IC50 (HepG2): 2.9 µM
Activity (MDA-MB-231 [28]): 78.7%
fold change (FC) [29]: >2
fold change (FC) [30]: >2
Activity [31]: Non-Toxic

— ChEMBL document CHEMBL5550185, “Targeting hTERT Promoter G-Quadruplex DNA Structures with Small-Molecule Ligand to Downregulate hTERT Expression for Triple-Negative Breast Cancer Therapy” (J Med Chem, 2024)
